The record followed here is patent US20250332173A1, “COMPOUNDS AND METHODS FOR MODULATING NUCLEIC ACID SPLICING” (REMIX THERAPEUTICS INC., priority 2021, published 2025).

Read-outs that look alike come from different tables or passages of the source.

Holding throughout (assay type): cell-based, human
The subject of one test is MYB mRNA. Nature of the test: RT-qPCR splicing assay, MYB canonical junction (CJ) and alternative junction (AJ) mRNA. The note with it: Homo sapiens; for AC50: increase in MYB alternative junction (AJ) mRNA, read-out: MYB AJ AC50. In outline:
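24 h treatment, 37 °C/5% CO2; A673 or K562; 11-pt 3-fold series, top 10 uM final; DMSO ≤0.25%. Cell lysis with DNase I, then 1-step RT-qPCR. Housekeeping normalization: PPIA (A673), GAPDH or GUSB (K562).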

In a further test the test system is MYB. Nature of the test: HiBiT protein abundance assay, MYB HiBiT K562 cell line. The conditions noted are these: HiBiT K562 cell line, 24 hours, top dose 10 μM; read-out: Effect on protein abundance, MYB (IC50 category). In outline: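 K562 knock-in lines with endogenous HiBiT-tagged target, 10,000 cells/well in IMDM + FBS, treated 24 h at 37° C with 10-point 3-fold dilutions (top 10 μM final; DMSO ≤0.25%). Lytic Nano-Glo HiBiT luminescence normalized to untagged K562 baseline and DMSO controls; IC50 = concentration giving 50% abundance via four-parameter fit.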

A further test has as its system Target C. Nature of the test: HiBiT protein abundance assay, Target C (Promega Nano-Glo HiBiT Lytic Detection System, knock-in K562 cell line). The note with it: Homo sapiens, K562, 24 h, HiBiT K562 cell line, 24 hours, top dose 10 μM; read-out: Effect on protein abundance, Target C (IC50 category). In outline: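 Knock-in K562 cells carrying HiBiT-tagged Target C, 10,000 per well, treated 24 h at 37 °C with 10-point threefold dilutions (top 10 μM final, ≤0.25% DMSO). Lytic HiBiT luminescence read; response normalised to unmodified K562 and DMSO controls, four-parameter fit interpolated at 50% for IC50.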
For orientation: HiBiT is a short tag that completes a luciferase, so light tracks the accessible tagged protein.

Setting [1] is: Table 5 panel, canonical junction qPCR, compound concentration having 50% response in CJ decrease, read-out: MYB IC50 (decrease in CJ mRNA levels).
Setting [2] is: decrease in MYB canonical junction (CJ) mRNA, RT-qPCR, read-out: MYB CJ IC50.

As for `CNc1cc(-c2cc(C)c3nc(C)cn3n2)cc2ccn([C@@H]3CCNC3)c(=O)c12` [Compound 648, 6-(2,8-dimethylimidazo[1,2-b]pyridazin-6-yl)-8-(methylamino)-2-[(3R)-pyrrolidin-3-yl]isoquinolin-1-one], the IC50 (commonly the point on the concentration scale where inhibition reaches its midpoint) with MYB mRNA (setting [1]) is more than 10 µM; with MYB mRNA (setting [2]) it was more than 10 µM; in the test with MYB, 1 to 10 µM; in the test with Target C, more than 10 µM. The concentration at half-maximal activity (AC50) – broadly, the concentration at which the activity in the assay is half-maximal – in the test with MYB mRNA (RT-qPCR) is more than 10 µM.

As for `CC(=O)Nc1cc(-c2cc(C)c3nc(C)cn3n2)cc2ccn([C@H]3CCNC3)c(=O)c12` [Compound 649, N-[6-(2,8-dimethylimidazo[1,2-b]pyridazin-6-yl)-1-oxo-2-[(3S)-pyrrolidin-3-yl]-8-isoquinolyl]acetamide], the IC50 with MYB mRNA (setting [1]), with MYB mRNA (setting [2]), with MYB and in the test with Target C was 1 to 10 µM in each case. In the test on MYB mRNA (RT-qPCR), the AC50 fell in the range of 1 to 10 µM.

For the compound `CC(=O)Nc1cc(-c2cc(C)c3nc(C)cn3n2)cc2ccn([C@@H]3CCNC3)c(=O)c12` [Compound 650, N-[6-(2,8-dimethylimidazo[1,2-b]pyridazin-6-yl)-1-oxo-2-[(3R)-pyrrolidin-3-yl]-8-isoquinolyl]acetamide], the IC50 in the test with MYB mRNA (setting [1]), in the test on MYB mRNA (setting [2]), in the test on MYB and with Target C was more than 10 µM throughout. The AC50 in the test with MYB mRNA (RT-qPCR) was more than 10 µM.

Take `Cc1cn2cc(-c3cc(F)c4c(=O)n(C5CC(C)NC(C)C5)ccc4c3)cc(F)c2n1` (centres unmarked) [Compound 651]: the IC50 with MYB mRNA (setting [1]) was less than 0.1 µM; in the test with MYB mRNA (setting [2]), less than 0.1 µM; in the test with MYB, less than 0.1 µM; in the test with Target C it was 0.1 to 1 µM. Moreover, in the test with MYB mRNA (RT-qPCR), the AC50 was less than 0.1 µM.

As for `Cc1cn2cc(-c3cc(F)c4c(=O)n([C@H]5CNC[C@H]5C)ccc4c3)cc(F)c2n1` [Compound 652, 8-fluoro-6-(8-fluoro-2-methyl-imidazo[1,2-a]pyridin-6-yl)-2-[(3R,4R)-4-methylpyrrolidin-3-yl]isoquinolin-1-one], the IC50 with MYB mRNA (setting [1]) is 1 to 10 µM; with MYB mRNA (setting [2]), 1 to 10 µM; in the test on MYB it was 1 to 10 µM; in the test on Target C, more than 10 µM. For the same compound, in the test on MYB mRNA (RT-qPCR), the half-maximal activity concentration (AC50) is 1 to 10 µM.

For the compound `Cc1cn2cc(-c3cc(F)c4c(=O)n([C@@H]5CNC[C@@H]5C)ccc4c3)cc(F)c2n1` [Compound 653, 8-fluoro-6-(8-fluoro-2-methyl-imidazo[1,2-a]pyridin-6-yl)-2-[(3S,4S)-4-methylpyrrolidin-3-yl]isoquinolin-1-one], the IC50 with MYB mRNA (setting [1]) was 1 to 10 µM; in the test on MYB mRNA (setting [2]), 1 to 10 µM; in the test on MYB it was 1 to 10 µM; in the test on Target C, more than 10 µM. Moreover, the AC50 in the test with MYB mRNA (RT-qPCR) lay within 1 to 10 µM.

Regarding `Cn1cc2cc(-c3ncc4c(=O)n(C5CCNCC5)ccc4n3)c(O)c(F)c2n1` [Compound 1123], the IC50 in the test on MYB mRNA (setting [1]), in the test with MYB mRNA (setting [2]), with MYB and in the test on Target C was less than 0.1 µM each time. Moreover, the half-maximal activity concentration (AC50) in the test with MYB mRNA (RT-qPCR) is less than 0.1 µM.
